Converted amounts (≈) assume the structure as drawn. Where two headings read alike, the source gives them in different places.
Columns and labels:
Assay in all cases: MIC broth microdilution, initial screening
Type in all cases: cell-based
C. albicans (ATCC 64124) = conditions: Candida albicans, read-out: minimum inhibitory concentration (MIC) C. albicans (ATCC 64124)
Protocol: (§1) The minimum inhibitory concentrations (MICs) of the tested compounds and control drugs (linezolid, vancomycin, gentamicin (antibiotics) and fluconazole and 5-fluorocytosine (5-FC) (antifungal drugs)) were determined using the broth microdilution method, according to guidelines outlined by the Clinical and Laboratory Standards Institute (CLSI, Clinical and Laboratory Standards Institute, Methods for antimicrobial susceptibility testing of anaerobic bacteria; approved standard, M11-A8. 8th ed., 2012; CLSI, Clinical and Laboratory Standards Institute. M27-A3 Reference Method for Broth Dilution Antifungal Susceptibility Testing of Yeasts; Approved Standard—Third Edition, Wayne, Pa., 2008) against clinically-relevant bacterial (methicillin-resistant Staphylococcus aureus (MRSA), Escherichia coli, and C. difficile strains) and fungal (Candida albicans) strains. S. aureus and E. coli were grown aerobically overnight on tryptone soy agar plates at 37° C. C. difficile was grown anaerobically on brain heart infusion supplemented agar at 37° C. for 48 hours. C. albicans was grown aerobically overnight on yeast peptone dextrose (YPD) agar plate at 35° C. Afterwards, a bacterial solution equivalent to 0.5 McFarland standard was prepared and diluted in cation-adjusted Mueller-Hinton broth (CAMHB) (for S. aureus and E. coli) to achieve a bacterial concentration of about 5×10^5 CFU/mL. C. difficile was diluted in brain heart infusion supplemented broth, supplemented with yeast extract, hemin and vitamin K to achieve a bacterial concentration of about 5×10^5 CFU/mL. C. albicans was diluted in Roswell Park Memorial Institute (RPMI 1640) medium with glutamine and without bicarbonate (GIBCO by Life Technologies, Green Island, N.Y., USA) which was buffered to pH 7.0 with 0.165 M of [3-(N-morpholino) propanesulfonic acid] (MOPS) (DOT Scientific Inc., Burton, Mich., USA) to achieve a fungal concentration of about 1.5×10^3 CFU/mL. Compounds and control drugs were added in the first row of the 96-well plates and serially diluted with the corresponding media containing bacteria. Plates were then incubated aerobically at 37° C. for 18-20 hours (for S. aureus and E. coli). C. difficile was incubated anaerobically at 37° C. for 48 hours. C. albicans was incubated aerobically at 37° C. for 24 hours.
(§2) The minimum inhibitory concentrations (MICs) of the tested compounds and control drugs; linezolid, vancomycin, gentamicin (antibiotics) and fluconazole and 5-fluorocytosine (5-FC) (antifungal drugs) were determined using the broth microdilution method, according to guidelines outlined by the Clinical and Laboratory Standards Institute (CLSI)^1, 2, 3 against clinically-relevant bacterial (methicillin-resistant Staphylococcus aureus (MRSA), Escherichia coli and Clostridium difficile strains) and fungal (Candida albicans) strain. S. aureus and E. coli were grown aerobically overnight on tryptone soy agar plates at 37° C. C. difficile was grown anaerobically on brain heart infusion supplemented agar at 37° C. for 48 hours. C. albicans was grown aerobically overnight on yeast peptone dextrose (YPD) agar plate at 35° C. Afterwards, a bacterial solution equivalent to 0.5 McFarland standard was prepared and diluted in cation-adjusted Mueller-Hinton broth (CAMHB) (for S. aureus and E. coli) to achieve a bacterial concentration of about 5×10^5 CFU/mL. C. difficile was diluted in brain heart infusion supplemented broth, supplemented with yeast extract, hemin and vitamin K to achieve a bacterial concentration of about 5×10^5 CFU/mL. C. albicans was diluted in Roswell Park Memorial Institute (RPMI 1640) medium with glutamine and without bicarbonate (GIBCO by Life Technologies, Green Island, N.Y., USA) which was buffered to pH 7.0 with 0.165 M of [3-(N-morpholino) propanesulfonic acid]

[1] = tested on: Clostridium difficile (ATCC-BAA1870); conditions: anaerobic, 48 hours; for MIC: Clostridioides difficile, ATCCBAA1870, 48 h, read-out: minimum inhibitory concentration (MIC) C. difficile (ATCC-BAA1870)
Protocol: as §1, §2

[2] = tested on: Escherichia coli BW25113 (wild-type); conditions: for MIC: Escherichia coli, E. coli BW25113, 18-20 hours, read-out: minimum inhibitory concentration (MIC) E. coli (Wild-type)
Protocol: as §1, §2

[3] = tested on: Escherichia coli JW55031 (TolC mutant); conditions: for MIC: Escherichia coli, read-out: minimum inhibitory concentration (MIC) E. coli (TolC mutant), E. coli JW55031, 18-20 hours
Protocol: as §1, §2

[4] = tested on: Methicillin-resistant Staphylococcus aureus NRS384 (MRSA USA300)
Protocol: as §1, §2

[5] = read-out: minimum inhibitory concentration (MIC) S. aureus (MRSA USA300), MRSA NRS384 (USA300), broth microdilution, 18-20 hours

Compound	MIC (C. albicans (ATCC 64124); ATCC64124, RPMI 1640, 24 hours) [µg/mL]	MIC (C. albicans (ATCC 64124); ATCC64124, 24 h) [µg/mL]	MIC [1] [µg/mL]	MIC [2] [µg/mL]	MIC [3] [µg/mL]	MIC [4, 5] [µg/mL]	minimum inhibitory concentration (MIC) C. difficile (ATCC-BAA1870) [1] [µg/mL]	MIC ([4]; MRSA|NRS384|USA300, read-out: minimum inhibitory concentration (MIC) S. aureus (MRSA USA300), MRSA NRS384 (USA300), broth microdilution, 18-20 hours) [µg/mL]	minimum inhibitory concentration (MIC) E. coli (Wild-type) ([2]; 18-20 hours) [µg/mL]	minimum inhibitory concentration (MIC) E. coli (TolC mutant) ([3]; E. coli JW55031, 18-20 hours) [µg/mL]
Nc1nc(=O)[nH]cc1F [5-Fluorocytosine, 5-fluorocytosine, reference compound]	0.25 (≈ 1.94 µM)	–	–	–	–	–	–	–	–	–
O=C(Nc1cccc(Nc2ccc(=O)[nH]n2)c1)Nc1ccc(Cl)c(Cl)c1 [MY49, 1-(3,4-dichlorophenyl)-3-(3-((6-oxo-1,6-dihydropyridazin-3-yl)amino)phenyl)urea]	–	> 128	> 128	> 128	> 128	> 128	–	–	–	–
OC(Cn1cncn1)(Cn1cncn1)c1ccc(F)cc1F [Fluconazole, reference compound]	> 128	–	–	–	–	–	–	–	–	–
COc1ccc(NC(=O)Nc2cccc(-c3ccc(=O)[nH]n3)c2)cc1 [MY33, 1-(4-methoxyphenyl)-3-(3-(6-oxo-1,6-dihydropyridazin-3-yl)phenyl)urea]	–	> 128	> 128	> 128	> 128	> 128	–	–	–	–
Cc1cc(Cl)ccc1NC(=O)Nc1ccc(-c2ccc(=O)[nH]n2)cc1	–	> 128	–	> 128	64 (≈ 180 µM)	–	64 (≈ 180 µM)	> 128	–	–
O=C(Nc1cccc(Nc2ccc(=O)[nH]n2)c1)Nc1ccc(Cl)c(C(F)(F)F)c1 [MY50, 1-(4-chloro-3-(trifluoromethyl)phenyl)-3-(3-((6-oxo-1,6-dihydropyridazin-3-yl)amino)phenyl)urea]	–	> 128	> 128	> 128	128 (≈ 302 µM)	> 128	–	–	–	–
Gentamicin [reference compound]	–	–	–	–	–	–	–	–	0.5	0.25
Cc1cccc(NC(=O)Nc2ccc(Oc3ccc(=O)[nH]n3)cc2)c1 [MY32, 1-(4-((6-oxo-1,6-dihydropyridazin-3-yl)oxy)phenyl)-3-(m-tolyl)urea]	–	> 128	> 128	> 128	> 128	> 128	–	–	–	–
